In patent EP4534086A1, “TREATMENT OF LEUKODYSTROPHY” (priority 2023, dated 2025):

Tests used:
[1] = system: Vimentin, Iba1 and IL-6 / MBP and MOG; test: Gene-expression signature from RT-qPCR of cerebellum (inflammation/myelin ratio); format: in vivo, mice; conditions: donepezil vs vehicle
Description: Total RNAs were isolated from cerebellum tissues using the Nucleospin® total RNA isolation kit (Macherey-Nagel, Germany). The concentrations of isolated RNA from each sample were assessed using a NanoDrop 2000 Spectrophotometer (Thermo Scientific, USA). 10 µL of the isolated RNA were equalized to 20 microlitres (µL) using RNase-free water. Then, the cDNA was synthesized by reverse transcription using the High-Capacity cDNA manufacture kit (Applied Biosystems™, Thermo Fisher Scientific, USA). Equal volumes of the isolated RNA and cDNA mastermix were mixed, centrifuged, and loaded in the thermal cycler (T100™, BIO-RAD, USA). The cDNA was diluted 1:2 with RNase-free water and stored at -20 deg.°C prior to qPCR analysis. The manufactured cDNA was amplified using multi-target qPCR. cDNA and PCR mastermix, containing the target and endogenous primers, as well as the Taqman mastermix, were loaded on a 96-well PCR fast plate (Thermo Fisher Scientific, USA) in an ice block. […] Gene expression data were analyzed using the Livak and Schmittgen (2001) ΔΔCt method, to produce a relative quantity (RQ) value of target gene expression relative to GAPDH expression as per formula in equations 1-3: (1) ΔCt=Ct target- Ct endogenous; (2) ΔΔCt= ΔCt sample- ΔCt control sample; (3) RQ=2-ΔΔCt.
Data normality was assessed using the Shapiro-Wilk test. […]

Sig-1R = target: T1, Sig-1R (Rattus norvegicus, UniProt Q9R0C9); conditions: rats; cited from earlier work
T1 construct: host or cells: living rats
T1 sequence (Q9R0C9 whole entry): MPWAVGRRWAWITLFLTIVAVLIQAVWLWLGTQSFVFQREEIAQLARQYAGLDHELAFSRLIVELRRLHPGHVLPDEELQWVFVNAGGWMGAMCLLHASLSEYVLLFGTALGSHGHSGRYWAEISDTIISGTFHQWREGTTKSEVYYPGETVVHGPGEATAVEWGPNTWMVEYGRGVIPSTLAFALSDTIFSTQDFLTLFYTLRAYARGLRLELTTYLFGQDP

In the case of `COc1cc2c(cc1OC)C(=O)C(CC1CCN(Cc3ccccc3)CC1)C2` (racemic) [donepezil, (RS)-2-[(1-Benzyl-4-piperidyl)methyl]-5,6-dimethoxy-2,3-dihydroinden-1-one], the “gene-expression-signature (Vimentin, Iba1 and IL-6 divided by MBP and MOG)” value ([1]; twitcher mice, p=0.0016) is given as “significant decrease”, the “gene-expression-signature (Vimentin, Iba1 and IL-6 divided by MBP and MOG)” value ([1]; wild-type mice, p=0.2495) is given as “no significant difference” and the “dose corresponding to EC50 for receptor occupancy” value (Sig-1R) is given as 1.07 mg/kg.
